From patent US9526785B2, “Pharmaceuticals for oral delivery” (Enteris BioPharma, Inc., priority 2013, dated 2016)
Where two headings read alike, the source gives them in different places.

Test: Tigecycline plasma PK and % F after PO enteric-coated capsule in dogs
Format: in vivo, Beagle dogs
Conditions: for concentration at 0 min: Time (min) 0.0; for concentration at 0.3 min: Time (min) 0.3; for concentration at 0.7 min: Time (min) 0.7; for concentration at 24 min: Time (min) 24.0; for Predicted AUC(0-t), % Difference / Predicted Mean Cmax, % Difference: observed vs predicted from 15 mg results; for Predicted AUC(0-t) / Predicted Mean Cmax: predicted from 15 mg results
Description: Adult beagle dogs weighing approximately 9 to 15 kg were used in the study. […] Room temperature was set to be maintained between approximately 20±5° C. Relative humidity was monitored but not controlled.
TEKLAD™ Certified Canine Diet was provided once daily in amounts (˜400 grams) appropriate for the size and age of the animals. Tap water was available ad libitum via automatic watering device or water bowls.
Oral dosing of enteric-coated capsules was accomplished by administering them to the back of the dog's mouth, followed by a chase of 5 mL water to ensure swallowing.
Water was provided ad libitum. […] Subsequently, each group of animals was dosed based on the protocol, i.e. either IV, or PO by capsule.
Minocycline (VWR international) was used as an internal standard. Sample processing/clean-up of plasma samples was carried out offline by protein precipitation with acidified acetonitrile using 0.5% trifluoroacetic acid (TFA).
The HPLC system consisted of Shimadzu SIL-HTc HPLC system equipped with dual Shimadzu LC-10ADvp isopumps, a Shimadzu CTO-10ASvp column temperature controller and a Shimadzu SPD-10Avp variable wavelength detector. […] Mobile phase A consisted of 23 mM phosphate buffer pH 2.5 with 4 mM 1-octanesulfonic acid, while mobile phase B consisting of 90% acetonitrile, 10% water, with 2 mM 1-octanesulfonic acid. […] The total runtime was 18 minutes per sample. The mobile phase flow rate was 1.2 mL/min. Detection was performed using the SPD-10Avp variable wavelength detector set at 350 nm, with a sensitivity of 0.001 aufs.
The samples were then centrifuged under refrigeration at 13 k rpm for 5 minutes. The supernatant was taken and the liquid removed to dryness under nitrogen in a turbovap. The dried extract was reconstituted in 60 μL of mobile phase A and the suspension was further centrifuged at 5 k rpm for 5 minutes to pellet any insoluble matter. The resulting supernatant was then injected onto the LC.
The unknown concentration in dog plasma samples was determined by interpolation of the peak area ratios of analyte:internal standard versus the ratio of their nominal concentrations into the regression line obtained from calibration standards spiked in pooled dog plasma. No regression weighting was used for the calculations. […] The calibration curve covered the range of 0.05 μg/mL to 5 μg/mL. […]
The capsules were enterically coated using a standard preclinical protocol to 10% weight gain. Two studies were conducted.

[1] = female, beagle, dog, plasma, po, 45 mg, Tigecycline Plasma Concentration, PO 45 mg enteric-coated capsule with 500 mg CA and 100 mg LLC, SC430, individual dogs
[2] = female, beagle, dog, plasma, po, 45 mg, Tigecycline Plasma Concentration, PO 45 mg enteric-coated capsule with 500 mg CA and 100 mg LLC, SC430, mean

CN(C)c1cc(NC(=O)CNC(C)(C)C)c(O)c2c1C[C@H]1C[C@H]3[C@H](N(C)C)C(O)=C(C(N)=O)C(=O)[C@@]3(O)C(O)=C1C2=O [Tigecycline]
Tmax (female, beagle, dog, plasma, po, 45 mg, 45 mg Formulated (500 mg CA, 100 mg LLC) enteric coated capsule, Study 2 (SC430), mean (% CV), read-out: Tmax (converted)): 1.67 h
AUC(0-t) (female, beagle, dog, plasma, po, 45 mg, PO 45 mg enteric-coated capsule with 500 mg CA and 100 mg LLC (SC430), read-out: AUC(0-t), mean): 574 ng·h/mL
Cmax (female, beagle, dog, plasma, po, 45 mg, PO 45 mg enteric-coated capsule with 500 mg CA and 100 mg LLC (SC430), read-out: Cmax, mean): 177 ng/mL
bioavailability (female, beagle, dog, plasma, po, 45 mg, PO 45 mg enteric-coated capsule with 500 mg CA and 100 mg LLC (SC430), read-out: absolute % F, mean): 15.5%
AUC(0-t) (female, beagle, dog, plasma, po, 45 mg, PO 45 mg enteric-coated capsule with 500 mg CA and 100 mg LLC ([…]), SC430, mean, read-out: AUC(0-t)): 574 ng·h/mL
Cmax (female, beagle, dog, plasma, po, 45 mg, PO 45 mg enteric-coated capsule with 500 mg CA and 100 mg LLC ([…]), SC430, mean, read-out: Cmax): 177 ng/mL
Tmax (female, beagle, dog, plasma, po, 45 mg, PO 45 mg enteric-coated capsule with 500 mg CA and 100 mg LLC ([…]), SC430, mean, read-out: Tmax (converted)): 1.67 h
bioavailability (female, beagle, dog, plasma, po, 45 mg, PO 45 mg enteric-coated capsule with 500 mg CA and 100 mg LLC, SC430, calculated from IV PK data of SC431, mean, read-out: % F): 15.5%
bioavailability (female, beagle, dog, plasma, po, 45 mg, Study 2 (SC430), 45 mg Formulated enteric coated capsule (500 mg citric acid, 100 mg LLC), oral, dogs, N=5, mean (% CV), based on that study's IV arm, read-out: % F): 15.5%
Tmax (female, beagle, dog, plasma, po, 45 mg, Study 2 (SC430), 45 mg Formulated enteric coated capsule (500 mg citric acid, 100 mg LLC), oral, dogs, N=5, mean (% CV), read-out: Tmax (converted)): 1.67 h
AUC(0-t) (female, beagle, dog, plasma, po, 45 mg, Study 2 (SC430), 45 mg Formulated enteric coated capsule (500 mg citric acid, 100 mg LLC), oral, dogs, N=5, mean (% CV), sampling 24 h, read-out: AUC(0-t)): 574 ng·h/mL
Cmax (female, beagle, dog, plasma, po, 45 mg, Study 2 (SC430), 45 mg Formulated enteric coated capsule (500 mg citric acid, 100 mg LLC), oral, dogs, N=5, mean (% CV), sampling 24 h, read-out: Cmax): 177 ng/mL
concentration at 0 min [1]: 0 ng/mL
concentration at 0 min [2]: 0 ng/mL
concentration at 0.3 min [1]: 0 ng/mL
concentration at 0.3 min [2]: 0 ng/mL
concentration at 0.7 min [1]: 0 ng/mL
concentration at 0.7 min [2]: 0 ng/mL
concentration at 1 min (female, beagle, dog, plasma, po, 45 mg, Tigecycline Plasma Concentration, Time (min) 1.0, PO 45 mg enteric-coated capsule with 500 mg CA and 100 mg LLC, SC430, mean): 56.4 ng/mL
concentration at […] (female, beagle, dog, plasma, po, 45 mg, Tigecycline Plasma Concentration, Time (min) 1.3, PO 45 mg enteric-coated capsule with 500 mg CA and 100 mg LLC, SC430, mean): 58.3 ng/mL
concentration at […] (female, beagle, dog, plasma, po, 45 mg, Tigecycline Plasma Concentration, Time (min) 1.7, PO 45 mg enteric-coated capsule with 500 mg CA and 100 mg LLC, SC430, mean): 101 ng/mL
concentration at 2 min (female, beagle, dog, plasma, po, 45 mg, Tigecycline Plasma Concentration, Time (min) 2.0, PO 45 mg enteric-coated capsule with 500 mg CA and 100 mg LLC, SC430, mean): 144 ng/mL
concentration at […] (female, beagle, dog, plasma, po, 45 mg, Tigecycline Plasma Concentration, Time (min) 2.3, PO 45 mg enteric-coated capsule with 500 mg CA and 100 mg LLC, SC430, mean): 108 ng/mL
concentration at […] (female, beagle, dog, plasma, po, 45 mg, Tigecycline Plasma Concentration, Time (min) 2.7, PO 45 mg enteric-coated capsule with 500 mg CA and 100 mg LLC, SC430, mean): 98.6 ng/mL
concentration at 3 min (female, beagle, dog, plasma, po, 45 mg, Tigecycline Plasma Concentration, Time (min) 3.0, PO 45 mg enteric-coated capsule with 500 mg CA and 100 mg LLC, SC430, mean): 76.5 ng/mL
concentration at […] (female, beagle, dog, plasma, po, 45 mg, Tigecycline Plasma Concentration, Time (min) 3.3, PO 45 mg enteric-coated capsule with 500 mg CA and 100 mg LLC, SC430, mean): 68.7 ng/mL
concentration at […] (female, beagle, dog, plasma, po, 45 mg, Tigecycline Plasma Concentration, Time (min) 3.7, PO 45 mg enteric-coated capsule with 500 mg CA and 100 mg LLC, SC430, mean): 62 ng/mL
concentration at 4 min (female, beagle, dog, plasma, po, 45 mg, Tigecycline Plasma Concentration, Time (min) 4.0, PO 45 mg enteric-coated capsule with 500 mg CA and 100 mg LLC, SC430, mean): 51.7 ng/mL
concentration at […] (female, beagle, dog, plasma, po, 45 mg, Tigecycline Plasma Concentration, Time (min) 4.5, PO 45 mg enteric-coated capsule with 500 mg CA and 100 mg LLC, SC430, mean): 48.9 ng/mL
concentration at 5 min (female, beagle, dog, plasma, po, 45 mg, Tigecycline Plasma Concentration, Time (min) 5.0, PO 45 mg enteric-coated capsule with 500 mg CA and 100 mg LLC, SC430, mean): 50.6 ng/mL
concentration at […] (female, beagle, dog, plasma, po, 45 mg, Tigecycline Plasma Concentration, Time (min) 5.5, PO 45 mg enteric-coated capsule with 500 mg CA and 100 mg LLC, SC430, mean): 42.5 ng/mL
concentration at 6 min (female, beagle, dog, plasma, po, 45 mg, Tigecycline Plasma Concentration, Time (min) 6.0, PO 45 mg enteric-coated capsule with 500 mg CA and 100 mg LLC, SC430, mean): 35.2 ng/mL
concentration at 8 min (female, beagle, dog, plasma, po, 45 mg, Tigecycline Plasma Concentration, Time (min) 8.0, PO 45 mg enteric-coated capsule with 500 mg CA and 100 mg LLC, SC430, mean): 22.9 ng/mL
concentration at 10 min (female, beagle, dog, plasma, po, 45 mg, Tigecycline Plasma Concentration, Time (min) 10.0, PO 45 mg enteric-coated capsule with 500 mg CA and 100 mg LLC, SC430, mean): 16.8 ng/mL
concentration at 24 min [1]: 0 ng/mL
concentration at 24 min [2]: 0 ng/mL
Cmax (female, beagle, dog, plasma, po, 45 mg, target dose 45 mg, enterically coated capsule, read-out: Observed Mean Cmax): 177 ng/mL
AUC(0-t) (female, beagle, dog, plasma, po, 45 mg, target dose 45 mg, enterically coated capsule, time scale adjusted to 4 hours, read-out: Observed AUC(0-t)): 266 ng·h/mL
Tmax (female, beagle, dog, plasma, po, all studied oral formulations, read-out: Tmax, mean (converted)): ~1.67 h
Predicted AUC(0-t), % Difference (target dose 30 mg): −23.9%
Predicted Mean Cmax, % Difference (target dose 30 mg): −24.8%
Predicted AUC(0-t) (target dose 30 mg): 265 ng·h/mL
Predicted Mean Cmax (target dose 30 mg): 151 ng/mL
Predicted AUC(0-t), % Difference (target dose 45 mg): −49.4%
Predicted Mean Cmax, % Difference (target dose 45 mg): −28.0%
Predicted AUC(0-t) (target dose 45 mg): 398 ng·h/mL
Predicted Mean Cmax (target dose 45 mg): 226 ng/mL
